Test results taken from ChEMBL document CHEMBL1201862, “PubChem BioAssay data set” (2004).
Where “and” joins values, the source holds several entries; their conditions need not be identical. Equal values may be shown once. Calls of active or inactive are those of the source.

Experiments:
[1] = viability of BHK-21 cells – cell-based, secondary screen, cytotoxicity control for flavivirus guanylyltransferase probe project (AID 624078); format: functional
[2] = molecular target: Kappa-type opioid receptor (Homo sapiens, UniProt P41145); test: Late-stage fluorescence-based cell-based dose response assay for antagonists of kappa opioid receptor 1 (OPRK1).; format: functional
[3] = molecular target: Delta-type opioid receptor (Homo sapiens, UniProt P41143); test: Late-stage results from the probe development effort to identify antagonists of OPRK1: fluorescence-based cell-based dose response OPRD1 counterscreen, Set 2.; format: functional
[4] = molecular target: Mu-type opioid receptor (Homo sapiens, UniProt P35372); test: Late-stage results from the probe development effort to identify antagonists of OPRK1: luminescence-based cell-based dose response OPRM1 counterscreen, Set 2.; format: functional
[5] = molecular target: Sphingosine 1-phosphate receptor 1 (Homo sapiens, UniProt P21453); test: Late-stage counterscreen for antagonists of kappa opioid receptor 1 (OPRK1): fluorescence-based cell-based dose response assay to identify antagonists of Sphingosine 1-Phosphate Receptor 1 (S1P1).; format: functional
[6] = molecular target: T1, Beta-2 adrenergic receptor (Homo sapiens, UniProt P07550); test: Dose response for HTS for Beta-2AR agonists via FAP method from Powderset2.; format: functional
[7] = molecular target: T1, Beta-2 adrenergic receptor; test: ADRB2 activation measured by internalization – cell-based, FAP fluorogen, flow cytometry, cherry pick 1, dose response (AID 588763); format: functional
[8] = molecular target: T2, Sentrin-specific protease 8 (Homo sapiens, UniProt Q96LD8); format: functional
T2 sequence (Q96LD8 whole entry): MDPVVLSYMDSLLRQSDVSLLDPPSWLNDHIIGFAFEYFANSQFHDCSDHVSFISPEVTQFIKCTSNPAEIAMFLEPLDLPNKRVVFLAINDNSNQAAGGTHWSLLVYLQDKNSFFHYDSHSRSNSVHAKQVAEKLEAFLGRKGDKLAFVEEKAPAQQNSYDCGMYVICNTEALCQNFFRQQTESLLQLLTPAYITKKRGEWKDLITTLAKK

[9] = molecular target: T3, Caspase-3 (Homo sapiens, UniProt P42574); test: Dose-response confirmation of uHTS inhibitor hits of Sentrin-Specific Protease 8 in a Caspase-3 Fluorescence assay.; format: functional
T3 sequence (P42574 whole entry): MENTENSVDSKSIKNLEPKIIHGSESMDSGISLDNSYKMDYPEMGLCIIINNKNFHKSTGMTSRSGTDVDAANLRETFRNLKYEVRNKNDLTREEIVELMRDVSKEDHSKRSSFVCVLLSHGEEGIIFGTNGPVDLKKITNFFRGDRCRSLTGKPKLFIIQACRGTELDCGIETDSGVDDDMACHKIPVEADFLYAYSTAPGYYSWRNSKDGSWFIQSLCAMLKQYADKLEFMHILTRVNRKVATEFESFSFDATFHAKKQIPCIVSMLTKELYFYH

[10] = molecular target: T4, Replicative DNA helicase DnaB (Mycobacterium tuberculosis, UniProt P9WMR3); test: DnaB intein splicing inhibitors, dose response, biochemical, cell-free fluorescence (AID 449749); format: functional
T4 sequence (P9WMR3 whole entry): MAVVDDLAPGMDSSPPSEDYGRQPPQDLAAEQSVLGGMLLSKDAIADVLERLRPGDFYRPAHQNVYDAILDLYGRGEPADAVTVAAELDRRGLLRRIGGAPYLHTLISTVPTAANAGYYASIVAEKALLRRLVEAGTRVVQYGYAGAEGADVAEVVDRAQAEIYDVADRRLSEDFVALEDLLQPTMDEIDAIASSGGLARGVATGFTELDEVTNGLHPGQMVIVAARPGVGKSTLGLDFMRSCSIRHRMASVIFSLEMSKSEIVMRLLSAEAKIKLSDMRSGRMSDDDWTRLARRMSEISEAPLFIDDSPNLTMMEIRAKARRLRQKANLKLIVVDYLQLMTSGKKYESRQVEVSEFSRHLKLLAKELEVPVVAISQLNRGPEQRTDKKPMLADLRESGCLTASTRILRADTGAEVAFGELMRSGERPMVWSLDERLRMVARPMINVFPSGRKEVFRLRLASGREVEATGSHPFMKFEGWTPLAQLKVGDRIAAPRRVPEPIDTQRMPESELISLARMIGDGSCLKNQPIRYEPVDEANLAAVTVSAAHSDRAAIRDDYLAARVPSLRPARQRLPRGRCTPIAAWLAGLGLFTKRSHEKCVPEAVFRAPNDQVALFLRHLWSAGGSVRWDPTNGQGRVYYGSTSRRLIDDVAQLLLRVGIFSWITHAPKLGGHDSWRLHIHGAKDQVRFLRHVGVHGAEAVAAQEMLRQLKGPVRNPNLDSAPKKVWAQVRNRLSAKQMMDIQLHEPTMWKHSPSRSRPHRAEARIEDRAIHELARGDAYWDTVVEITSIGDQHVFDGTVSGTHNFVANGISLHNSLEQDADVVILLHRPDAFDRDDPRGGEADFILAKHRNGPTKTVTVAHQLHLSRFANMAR

[11] = molecular target: T2, Sentrin-specific protease 8; format: functional; remark: listed apart in the source
[12] = molecular target: T5, Caspase-6 (Homo sapiens, UniProt P55212); test: inhibition of CASP6 peptide cleavage – biochemical, VEID-R110 fluorescence, cherry-pick, dose response (AID 720632)
T5 sequence (P55212 whole entry): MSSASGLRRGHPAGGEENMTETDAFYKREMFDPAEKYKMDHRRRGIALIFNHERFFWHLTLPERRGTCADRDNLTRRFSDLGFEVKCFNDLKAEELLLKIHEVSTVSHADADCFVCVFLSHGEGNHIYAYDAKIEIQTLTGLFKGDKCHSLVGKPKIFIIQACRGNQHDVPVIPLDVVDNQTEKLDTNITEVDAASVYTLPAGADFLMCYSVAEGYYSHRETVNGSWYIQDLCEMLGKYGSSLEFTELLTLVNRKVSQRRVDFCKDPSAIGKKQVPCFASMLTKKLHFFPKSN

[13] = molecular target: T6, Protein RecA (Mycobacterium tuberculosis, UniProt P9WHJ3); test: Fluorescence Cell-Free Homogeneous Dose Retest to Identify Inhibitors of RecA-Intein Splicing Activity. [Related pubchem assays (depositor defined):AID2097, AID2223, AID489010, AID492950]; format: functional
T6 sequence (P9WHJ3 whole entry): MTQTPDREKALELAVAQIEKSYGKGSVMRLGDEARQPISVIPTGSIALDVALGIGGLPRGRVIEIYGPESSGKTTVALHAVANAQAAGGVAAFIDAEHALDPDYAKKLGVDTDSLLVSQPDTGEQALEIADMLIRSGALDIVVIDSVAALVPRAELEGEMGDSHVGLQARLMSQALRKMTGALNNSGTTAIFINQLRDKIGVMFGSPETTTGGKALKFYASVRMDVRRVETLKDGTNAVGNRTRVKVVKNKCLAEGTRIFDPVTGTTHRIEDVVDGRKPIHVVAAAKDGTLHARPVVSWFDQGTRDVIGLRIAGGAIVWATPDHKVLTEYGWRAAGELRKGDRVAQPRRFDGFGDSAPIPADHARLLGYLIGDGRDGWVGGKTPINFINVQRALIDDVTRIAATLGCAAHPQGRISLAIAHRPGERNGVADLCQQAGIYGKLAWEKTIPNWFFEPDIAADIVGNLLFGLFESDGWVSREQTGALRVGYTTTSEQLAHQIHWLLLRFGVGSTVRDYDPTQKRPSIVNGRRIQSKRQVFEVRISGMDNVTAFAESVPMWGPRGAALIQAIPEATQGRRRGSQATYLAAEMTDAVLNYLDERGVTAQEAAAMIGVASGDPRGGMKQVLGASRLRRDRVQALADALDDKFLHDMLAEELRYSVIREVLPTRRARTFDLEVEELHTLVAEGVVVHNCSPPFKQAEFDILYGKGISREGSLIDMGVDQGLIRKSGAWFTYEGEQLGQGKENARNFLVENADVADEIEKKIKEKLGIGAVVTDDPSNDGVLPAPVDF

[14] = tested on: Vero; test: viability loss in Vero cells – cell-based, plate reader, cherry-pick samples, cytotoxicity control, dose response (AID 687020); format: functional; details: Chlorocebus sabaeus
[15] = viability loss in HEK293T cells – cell-based, cherry-picks, cytotoxicity control for HIV Vif inhibitor project, dose response (AID 652208); format: functional
[16] = tested on: Vero; test: cells; format: functional; details: Chlorocebus sabaeus
[17] = molecular target: SWI/SNF-related matrix-associated actin-dependent regulator of chromatin subfamily A member 2 (Homo sapiens, UniProt P51531); test: Luminescence-based cell-based high throughput dose response assay to identify activators of the function of SWI/SNF related, matrix associated, actin dependent regulator of chromatin, subfamily a, member 2 (SMARCA2, BRM).; format: functional
[18] = Counterscreen for activators of the function of SWI/SNF related, matrix associated, actin dependent regulator of chromatin, subfamily a, member 2 (SMARCA2, BRM): Luminescence-based cell-based high throughput dose response assay to identify non-selective compounds using the VP16 reporter assay.; format: functional

T1 sequence (P07550 whole entry): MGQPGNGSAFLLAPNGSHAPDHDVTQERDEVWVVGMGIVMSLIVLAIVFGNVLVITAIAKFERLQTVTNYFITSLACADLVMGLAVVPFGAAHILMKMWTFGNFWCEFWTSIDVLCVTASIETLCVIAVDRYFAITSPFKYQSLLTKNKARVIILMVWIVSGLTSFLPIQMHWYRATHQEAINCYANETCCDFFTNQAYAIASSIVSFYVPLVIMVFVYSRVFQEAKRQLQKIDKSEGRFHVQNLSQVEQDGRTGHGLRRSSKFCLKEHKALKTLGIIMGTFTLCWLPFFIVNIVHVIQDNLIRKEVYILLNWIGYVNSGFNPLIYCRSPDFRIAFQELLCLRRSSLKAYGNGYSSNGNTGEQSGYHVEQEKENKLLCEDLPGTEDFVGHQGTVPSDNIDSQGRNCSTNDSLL
Chain of Delta-type opioid receptor (P41143 whole entry): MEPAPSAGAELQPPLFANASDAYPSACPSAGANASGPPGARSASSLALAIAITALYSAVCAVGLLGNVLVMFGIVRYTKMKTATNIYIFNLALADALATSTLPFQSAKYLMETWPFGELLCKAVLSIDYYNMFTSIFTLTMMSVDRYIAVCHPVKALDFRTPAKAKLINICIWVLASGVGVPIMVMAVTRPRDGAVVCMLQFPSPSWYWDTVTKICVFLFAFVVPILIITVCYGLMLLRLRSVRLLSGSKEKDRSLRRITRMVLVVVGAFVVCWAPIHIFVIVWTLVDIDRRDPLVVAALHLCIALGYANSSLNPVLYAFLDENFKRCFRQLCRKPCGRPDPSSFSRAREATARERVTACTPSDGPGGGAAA
Chain of Kappa-type opioid receptor (P41145 whole entry): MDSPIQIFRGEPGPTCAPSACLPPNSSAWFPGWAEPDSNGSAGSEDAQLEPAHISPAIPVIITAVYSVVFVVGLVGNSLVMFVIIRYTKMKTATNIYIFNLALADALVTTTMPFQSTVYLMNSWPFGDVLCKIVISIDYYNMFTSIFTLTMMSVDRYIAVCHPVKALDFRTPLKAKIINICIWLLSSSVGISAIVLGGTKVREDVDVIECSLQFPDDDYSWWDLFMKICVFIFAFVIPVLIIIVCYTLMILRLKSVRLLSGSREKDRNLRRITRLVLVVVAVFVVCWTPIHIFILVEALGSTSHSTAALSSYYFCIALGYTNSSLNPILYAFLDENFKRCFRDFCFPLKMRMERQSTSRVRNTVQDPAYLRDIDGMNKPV
Chain of SWI/SNF-related matrix-associated actin-dependent regulator of chromatin subfamily A member 2 (P51531 whole entry): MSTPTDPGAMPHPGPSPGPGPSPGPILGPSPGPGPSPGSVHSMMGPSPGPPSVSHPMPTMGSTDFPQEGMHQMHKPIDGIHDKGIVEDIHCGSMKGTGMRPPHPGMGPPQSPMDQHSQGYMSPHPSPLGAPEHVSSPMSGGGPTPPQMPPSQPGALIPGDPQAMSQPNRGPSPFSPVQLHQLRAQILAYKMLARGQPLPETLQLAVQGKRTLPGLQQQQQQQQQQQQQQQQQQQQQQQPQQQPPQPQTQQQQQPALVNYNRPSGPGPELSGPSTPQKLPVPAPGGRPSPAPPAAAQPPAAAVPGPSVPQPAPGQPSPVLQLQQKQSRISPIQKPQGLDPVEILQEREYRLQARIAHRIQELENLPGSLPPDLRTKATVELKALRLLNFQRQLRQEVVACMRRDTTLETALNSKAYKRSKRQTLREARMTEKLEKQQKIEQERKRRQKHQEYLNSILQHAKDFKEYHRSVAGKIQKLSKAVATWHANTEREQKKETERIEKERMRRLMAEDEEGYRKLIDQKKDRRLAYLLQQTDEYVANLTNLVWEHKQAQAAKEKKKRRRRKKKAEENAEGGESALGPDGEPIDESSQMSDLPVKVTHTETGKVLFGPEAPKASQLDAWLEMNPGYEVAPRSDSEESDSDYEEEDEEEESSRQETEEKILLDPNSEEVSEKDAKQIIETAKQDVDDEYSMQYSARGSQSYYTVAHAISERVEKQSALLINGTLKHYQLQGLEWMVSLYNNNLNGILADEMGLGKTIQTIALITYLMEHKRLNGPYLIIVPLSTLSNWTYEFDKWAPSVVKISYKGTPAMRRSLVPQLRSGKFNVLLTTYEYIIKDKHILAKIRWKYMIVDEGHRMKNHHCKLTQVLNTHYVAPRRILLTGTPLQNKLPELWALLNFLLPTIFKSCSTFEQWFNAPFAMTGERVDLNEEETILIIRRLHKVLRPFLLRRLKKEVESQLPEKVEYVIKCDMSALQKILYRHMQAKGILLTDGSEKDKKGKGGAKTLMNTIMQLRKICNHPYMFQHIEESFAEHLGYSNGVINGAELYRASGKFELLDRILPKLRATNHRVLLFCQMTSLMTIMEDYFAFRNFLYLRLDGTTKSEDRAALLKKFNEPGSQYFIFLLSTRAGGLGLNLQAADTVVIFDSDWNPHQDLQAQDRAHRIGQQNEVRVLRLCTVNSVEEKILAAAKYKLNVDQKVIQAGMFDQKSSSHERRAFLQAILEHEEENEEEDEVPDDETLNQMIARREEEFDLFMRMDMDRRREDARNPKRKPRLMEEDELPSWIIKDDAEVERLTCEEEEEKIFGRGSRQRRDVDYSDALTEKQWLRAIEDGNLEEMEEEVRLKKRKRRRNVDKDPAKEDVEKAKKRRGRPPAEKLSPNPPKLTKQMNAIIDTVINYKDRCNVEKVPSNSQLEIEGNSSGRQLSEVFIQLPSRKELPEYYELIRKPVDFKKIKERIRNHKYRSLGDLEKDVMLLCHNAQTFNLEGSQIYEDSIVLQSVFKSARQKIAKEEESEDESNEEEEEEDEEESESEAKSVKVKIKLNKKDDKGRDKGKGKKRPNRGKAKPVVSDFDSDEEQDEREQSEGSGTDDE
Chain of Mu-type opioid receptor (P35372 whole entry): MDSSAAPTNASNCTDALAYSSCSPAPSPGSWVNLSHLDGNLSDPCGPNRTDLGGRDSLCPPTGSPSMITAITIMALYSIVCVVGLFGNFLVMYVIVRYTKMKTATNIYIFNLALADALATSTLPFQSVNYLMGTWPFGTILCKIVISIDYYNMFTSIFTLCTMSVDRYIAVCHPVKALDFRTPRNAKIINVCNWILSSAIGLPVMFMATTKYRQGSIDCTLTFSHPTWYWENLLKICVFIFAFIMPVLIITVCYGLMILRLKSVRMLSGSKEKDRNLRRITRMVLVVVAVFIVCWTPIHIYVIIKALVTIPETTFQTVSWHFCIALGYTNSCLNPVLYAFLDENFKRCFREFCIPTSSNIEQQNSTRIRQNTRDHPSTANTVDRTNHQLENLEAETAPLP
Chain of Sphingosine 1-phosphate receptor 1 (P21453 whole entry): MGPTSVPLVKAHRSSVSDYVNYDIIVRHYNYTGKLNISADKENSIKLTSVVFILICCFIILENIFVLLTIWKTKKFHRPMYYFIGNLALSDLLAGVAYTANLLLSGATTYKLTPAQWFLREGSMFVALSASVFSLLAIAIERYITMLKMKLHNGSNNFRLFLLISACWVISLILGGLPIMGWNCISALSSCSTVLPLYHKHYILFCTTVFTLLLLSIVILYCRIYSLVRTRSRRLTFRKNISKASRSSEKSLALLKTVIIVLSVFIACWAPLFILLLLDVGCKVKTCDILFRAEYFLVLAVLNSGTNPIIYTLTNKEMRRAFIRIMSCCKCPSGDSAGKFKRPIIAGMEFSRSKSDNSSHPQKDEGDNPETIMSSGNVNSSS

For COc1ccc(OC)c(S(=O)(=O)Nc2cc(SCC(=O)O)c(O)c3ccccc23)c1, the CC50 [1] was 9.6 µM (active).
For COc1ccc(OS(=O)(=O)c2sc(Br)cc2Br)cc1, the IC50 [2] was 16.9 µM (inactive), the IC50 [3] was 35.7 µM (inactive) and the IC50 [4] was > 50 µM (inactive). For the same compound, the IC50 [5] was > 50 µM (inactive).
For CCOC(=O)c1ccc(NC(=O)COc2ccc(S(=O)(=O)N3CCCC3)cc2)cc1, the EC50 [6] was 1.37 µM (active) and the EC50 [7] was 391 nM (active) and 162 nM (active).
For CCOC(=O)c1nn(-c2ccc(OC)cc2)c(=O)c2c(N)scc12, the IC50 [8] was 6.99 µM (active), the IC50 [9] was 23 µM (active) and the AC50 [10] was 23.2 µM (active). The IC50 [11] was 5.63 µM (active), the AC50 [12] was 34.3 µM (active) and the EC50 [13] was 1.59 µM (active).
In the case of CC1CCC(CN2CCN=C2Nc2ccccc2)CC1 (stereo not drawn), the AC50 [14] was 31.6 µM (active).
With CCn1cc(CN2CCCC(C(=O)Nc3cccc(-c4cc5ccccc5[nH]4)c3)C2)c(C)n1 (stereo not drawn) the AC50 [15] was 40.9 µM (active) and the CC50 [16] was 24.9 µM (active).
With COc1ccc(Br)c(C(=O)Nc2nc3ccccc3[nH]2)c1 the EC50 [17] was > 91.1 µM (inactive) and the EC50 [18] was > 91.1 µM (inactive).
